According to patent US20230145793A1, “SUBSTITUTED PYRIMIDINE OR PYRIDINE AMINE DERIVATIVE, COMPOSITION THEREOF, AND MEDICAL USE THEREOF” (SHANGHAI HAIYAN PHARMACEUTICAL TECHNOLOGY CO., LTD., priority 2020, published 2023):

How the values were obtained:
A2A receptor = target: T1, A2A receptor (Homo sapiens, UniProt P29274); assay: Test 1: inhibitory activity to the A2A receptor, cAMP HTRF in CHO-K1/ADORA2A/Gα15 cells, NECA 50 nM; format: cell-based
T1 construct: host or cells: CHO-K1 (co-expressing Gα15)
Method: (§1) Test 1: Inhibitory Activities to the A2A Receptor and the A2B Receptor CHO-K1/ADORA2A/Gα15 (GenScript, M00246) and CHO-K1/ADORA2B/Gα15 (GenScript, M00329) cells were cultured in a Ham's F-12 (Gibco, 31765092) medium containing 10% FBS, Zeocin (200 ug/mL), and Hygromycin B (100 ug/mL), or containing 10% FBS, G418 (400 ug/mL), and Hygromycin B (100 ug/mL) under culture conditions specified in the corresponding instruction. Screening procedure was as follows: 1. The cell density was adjusted with a serum-free medium to 6×10^5 cells/mL. 2. 5 uL of cell solution, 2.5 μL of NECA (Sigma, 119140-10MG), and 2.5 μL of compound solution were placed into each well of a 384-well plate (Greiner Bio-One, 784075) in sequence, the final concentration of NECA was 50 nM (CHO-K1/ADORA2A) or 10 nM (CHO-K1/ADORA2B), and the compound solution was subjected to 3-fold dilution from the final concentration of 3 uM. 3. The cells were placed still and cultured in an incubator at 37° C. for 30 min. 4. 5 μL of cAMP-d2 and 5 μL of cAMP-ab (Cisbio, 62AM4PEB) were added in sequence. 5. The 384-well plate was placed in dark at the room temperature for 1 h. 6. The plate was read (Victor X5, PerkinElmer), data were analyzed by XLfit nonlinear regression, and IC50 values of the compounds were calculated.

A2B receptor = target: T2, A2B receptor (Homo sapiens, UniProt P29275); assay: Test 1: inhibitory activity to the A2B receptor, cAMP HTRF in CHO-K1/ADORA2B/Gα15 cells, NECA 10 nM; format: cell-based
T2 construct: host or cells: CHO-K1 (co-expressing Gα15)
T2 sequence (P29275 1-332): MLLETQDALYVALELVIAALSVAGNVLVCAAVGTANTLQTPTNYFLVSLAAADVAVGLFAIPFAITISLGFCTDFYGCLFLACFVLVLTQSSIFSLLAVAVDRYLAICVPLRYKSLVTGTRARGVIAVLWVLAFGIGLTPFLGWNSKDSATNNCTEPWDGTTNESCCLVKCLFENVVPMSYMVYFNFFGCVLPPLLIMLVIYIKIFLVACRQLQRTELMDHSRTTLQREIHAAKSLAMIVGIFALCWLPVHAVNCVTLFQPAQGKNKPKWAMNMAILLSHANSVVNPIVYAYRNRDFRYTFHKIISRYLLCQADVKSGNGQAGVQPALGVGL
Method: as §1

T1 sequence (P29274 whole entry): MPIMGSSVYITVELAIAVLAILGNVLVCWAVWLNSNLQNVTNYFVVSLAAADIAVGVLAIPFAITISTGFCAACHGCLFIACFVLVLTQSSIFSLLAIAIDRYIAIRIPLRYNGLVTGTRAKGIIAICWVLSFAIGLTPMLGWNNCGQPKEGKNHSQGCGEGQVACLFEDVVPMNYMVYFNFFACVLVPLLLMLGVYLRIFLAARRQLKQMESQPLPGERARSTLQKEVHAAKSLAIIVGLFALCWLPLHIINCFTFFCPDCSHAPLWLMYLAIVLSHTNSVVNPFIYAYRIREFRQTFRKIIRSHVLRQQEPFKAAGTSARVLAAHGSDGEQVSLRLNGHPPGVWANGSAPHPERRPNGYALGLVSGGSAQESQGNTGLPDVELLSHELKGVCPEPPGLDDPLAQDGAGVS

SMILES	IC50 (A2A receptor) [µM]	IC50 (A2B receptor) [µM]
Cc1c(C#N)cccc1-c1nc(N)nc(-c2cn(Cc3cccc(C(C)(C)O)n3)nn2)c1F [Compound L-2]	0.062	0.029
CC(C)(O)c1cccc(Cn2cc(-c3nc(-c4cccc(C#N)c4)nc4c3OCC(=O)N4)nn2)n1 [Compound L-4]	0.001	0.006
CC(C)(O)c1cccc(Cn2cc(-c3nc(-c4cccc(C#N)c4F)nc(N)c3F)nn2)n1 [Compound L-5]	0.004	0.006
Cc1c(C#N)cccc1-c1nc(N)c(Cl)c(-c2cn(Cc3cccn(CC(C)(C)O)c3=O)nn2)n1 [Compound L-7]	< 0.001	0.007
Cc1c(C#N)cccc1-c1nc(N)c(Cl)c(-c2cn(Cc3cccn(C(C)C)c3=O)nn2)n1 [Compound L-8]	< 0.001	0.003
CCc1nccc(Cn2cc(-c3nc(-c4cccc(C#N)c4C)nc(N)c3Cl)nn2)n1 [Compound L-11]	0.001	0.014
Cc1c(C#N)cccc1-c1nc(N)c(Cl)c(-c2cn(Cc3ccn(C4CC4)n3)nn2)n1 [Compound L-12]	< 0.001	0.004
Cc1c(C#N)cccc1-c1nc(N)c(Cl)c(-c2cn(Cc3cccn(C)c3=O)nn2)n1 [Compound L-13]	0.001	0.013
Cc1c(F)cccc1-c1nc(N)c(F)c(-c2cn(Cc3cccc(C(C)(C)O)n3)nn2)n1 [Compound L-14]	0.017	0.014
Cc1c(C#N)cccc1-c1nc(N)c(F)c(-c2cn(Cc3cccn(C4CC4)c3=O)nn2)n1 [Compound L-17]	0.001	0.007
Cc1c(C#N)cccc1-c1nc(N)c(F)c(-c2cn(Cc3ccn(C4CC(F)(F)C4)n3)nn2)n1 [Compound L-19]	0.003	0.006
Cc1c(C#N)cccc1-c1nc(N)c(Cl)c(-c2cn(Cc3cc[nH]n3)nn2)n1 [Compound L-20]	0.004	0.012
Cc1c(C#N)cccc1-c1nc(N)c(F)c(-c2cn(Cc3cc(F)n(C)n3)nn2)n1 [Compound L-21]	0.007	0.021
Cc1c(C#N)cccc1-c1nc(N)c(Cl)c(-c2cn(Cc3cc(C(C)(C)O)[nH]n3)nn2)n1 [Compound L-22]	0.01	0.001
Cc1c(C#N)cccc1-c1nc(N)c(F)c(-c2cn(Cc3cc[nH]n3)nn2)n1 [Compound L-27]	0.007	0.002
Cc1c(C#N)cccc1-c1nc(N)c(F)c(-c2cn(Cc3ccn(CC(N)=O)n3)nn2)n1 [Compound L-29]	0.009	0.008
CCn1ccc(Cn2cc(-c3nc(-c4cccc(C#N)c4C)nc(N)c3F)nn2)n1 [Compound L-30]	< 0.001	0.001

SMILES	IC50 (A2A receptor) [µM]	IC50 (A2B receptor) [µM]
Cc1c(C#N)cccc1-c1nc(N)c(Cl)c(-c2cnn(Cc3ccn(C)n3)c2)n1 [Compound L-33]	0.002	0.005
Cc1c(C#N)cccc1-c1nc(N)c(Cl)c(-c2cn(Cc3ccn(C(F)F)n3)nn2)n1 [Compound L-34]	0.002	0.008
Cc1c(C#N)cccc1-c1nc(N)c(F)c(-c2cn(Cc3ccn(CC(C)C)n3)nn2)n1 [Compound L-36]	0.001	0.01
Cc1c(C#N)cccc1-c1nc(N)c(F)c(-c2cn(Cc3ccn(CC(F)(F)F)n3)nn2)n1 [Compound L-37]	0.002	0.007
Cc1c(C#N)cccc1-c1nc(N)c(F)c(-c2cn(Cc3ccn(CC4CC4)n3)nn2)n1 [Compound L-39]	0.002	0.007
Cc1c(C#N)cccc1-c1nc(N)c(F)c(-c2cn(Cc3cnn(C)n3)nn2)n1 [Compound L-47]	0.011	0.024
Cc1c(C#N)cccc1-c1nc(N)c(F)c(-c2cn(Cc3ccn(C(C)(C)CO)n3)nn2)n1 [Compound L-49]	0.001	0.002
Cc1c(C#N)cccc1-c1nc(N)c(F)c(-c2cn(Cc3ccn(C(C)(C)C)n3)nn2)n1 [Compound L-51]	0.03	0.006
Cc1c(C#N)cccc1-c1nc(N)c(F)c(-c2cn(Cc3cccc(C4(O)COC4)n3)nn2)n1 [Compound L-53]	0.002	0.004
Cc1c(C#N)cccc1-c1nc(N)c(F)c(-c2cn(Cc3cccc(C(C)(C)C#N)n3)nn2)n1 [Compound L-54]	0.003	0.004
Cc1c(C#N)cccc1-c1nc(N)c(F)c(-c2cn(Cc3cccc(C(N)=O)n3)nn2)n1 [Compound L-56]	0.007	0.024
Cc1c(C#N)cccc1-c1nc(N)nc(-c2cn(Cc3ccn(C)n3)nn2)c1F [Compound L-59]	0.063	0.049
COCc1cccc(Cn2cc(-c3nc(N)nc(-c4cccc(C#N)c4C)c3F)nn2)n1 [Compound L-60]	0.079	0.073
COCc1cccc(Cn2cc(-c3nc(-c4cccc(C#N)c4C)nc(N)c3F)nn2)n1 [Compound L-62]	0.001	0.003
Cc1c(C#N)cccc1-c1nc(N)c(F)c(-c2cn(Cc3cccc(C(C)(C)CO)n3)nn2)n1 [Compound L-63]	0.001	0.005
Cc1c(C#N)cccc1-c1nc(N)c(F)c(-c2cn(Cc3cccc(C4(O)CCC4)n3)nn2)n1 [Compound L-64]	0.001	0.004

Second part, the compound after the results:

IC50 (A2A receptor) [µM]	IC50 (A2B receptor) [µM]	SMILES
0.005	0.022	Cc1c(C#N)cccc1-c1nc(N)c(F)c(-c2cn(Cc3cccc(N4CCC(O)C4)n3)nn2)n1 [Compound L-65]
0.003	0.011	Cc1c(C#N)cccc1-c1nc(N)c(F)c(-c2cn(Cc3cccc(C4(O)CCCC4)n3)nn2)n1 [Compound L-66]
0.002	0.011	Cc1c(C#N)cccc1-c1nc(N)c(F)c(-c2cn(Cc3cccc(C(C)C)n3)nn2)n1 [Compound L-68]
0.005	0.02	Cc1c(C#N)cccc1-c1nc(N)c(F)c(-c2cn(Cc3cccc(N4CCOCC4)n3)nn2)n1 [Compound L-69]
0.002	0.013	Cc1c(C#N)cccc1-c1nc(N)c(F)c(-c2cn(Cc3cccc(CN4CCOCC4)n3)nn2)n1 [Compound L-70]
0.006	0.023	Cc1c(C#N)cccc1-c1nc(N)c(F)c(-c2cn(Cc3cccc(CN4CCN(C)CC4)n3)nn2)n1 [Compound L-71]
0.004	0.014	Cc1c(C#N)cccc1-c1nc(N)c(F)c(-c2cn(Cc3cccc(N4CCN(C)CC4)n3)nn2)n1 [Compound L-72]
0.003	0.005	Cc1c(C#N)cccc1-c1nc(N)c(F)c(-c2cn(Cc3cccc(C(F)F)n3)nn2)n1 [Compound L-73]
< 0.001	0.0005	Cc1c(C#N)cccc1-c1nc(N)c(F)c(-c2cn(Cc3ccn(C(C)C)n3)nn2)n1 [Compound L-75]
0.005	0.007	Cc1c(C#N)cccc1-c1nc(N)c(F)c(-c2cn(Cc3ccn(CC(C)(C)O)n3)nn2)n1 [Compound L-76]
0.001	0.003	Cc1c(C#N)cccc1-c1nc(N)c(F)c(-c2cn(Cc3ccn(C4CCOC4)n3)nn2)n1 [Compound L-77]
0.003	0.003	COCCn1ccc(Cn2cc(-c3nc(-c4cccc(C#N)c4C)nc(N)c3F)nn2)n1 [Compound L-78]
0.019	0.025	Cc1c(C#N)cccc1-c1nc(N)c(F)c(-c2cn(Cc3cc(C)n(C)n3)nn2)n1 [Compound L-79]
0.015	0.013	Cc1c(C#N)cccc1-c1nc(N)c(F)c(-c2cn(Cc3nn(C)cc3F)nn2)n1 [Compound L-80]
0.004	0.023	Cc1c(C#N)cccc1-c1nc(N)c(F)c(-c2cn(Cc3cccc(C(C)(O)C(F)(F)F)n3)nn2)n1 [Compound L-81]
0.003	0.007	Cc1c(C#N)cccc1-c1nc(N)c(F)c(-c2cn(Cc3ccn(CC4CCCO4)n3)nn2)n1 [Compound L-83]
0.004	0.024	Cc1c(C#N)cccc1-c1nc(N)c(Cl)c(-c2cn(Cc3cccc(S(C)(=O)=O)c3)nn2)n1 [Compound L-84]
0.002	0.004	CCC(C)(O)c1cccc(Cn2cc(-c3nc(-c4cccc(C#N)c4C)nc(N)c3F)nn2)n1 [Compound L-85]
< 0.001	0.001	COC(C)c1cccc(Cn2cc(-c3nc(-c4cccc(C#N)c4C)nc(N)c3F)nn2)n1 [Compound L-86]
0.002	0.008	Cc1c(C#N)cccc1-c1nc(N)c(F)c(-c2cn(Cc3ccn(C4COC4)n3)nn2)n1 [Compound L-88]
